# Results reported in patent US20240300980A1, “HETEROCYCLIC COMPOUNDS AS KRAS INHIBITOR, AND PREPARATION THEREFOR AND USE THEREOF IN TREATMENT” (SHANGHAI KECHOW PHARMA, INC., priority 2021, published 2024).
# Where two headings read alike, the source gives them in different places.
# System: AGS cells (KRAS^G12D)
# Experiment: Detection of cell proliferation in vitro by MTT/MTS method (cell activity experiment)
# Type: cell-based
# Conditions: AGS cells, MTT/MTS, 3 days of drug treatment, read-out: AGS IC50
# Procedure, shortened: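 After 3-day compound exposure (final DMSO 0.5%), viability of AGS (KRAS G12D) cells, plated 1000/well one day before dosing, was measured at 490 nm following 4 h MTT or MTS incubation. IC50 was fitted from dose–effect curves relative to DMSO-treated wells.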
IC50 [nM],SMILES,"IC50 (Homo sapiens, AGS, 72 h) [nM]"
,"C#Cc1c(F)ccc2cccc(-c3ccc4c(N5C[C@H]6CC[C@@H](C5)N6)nc(OC[C@]56CCCN5[C@@H](COC(=O)N(C)C)CC6)nc4c3)c12 [Example 155, ((3R,7aR)-7a-(((4-((1R, 5S)-3,8-diazabicyclo [3.2.1]octan-3-yl)-7-(8-ethynyl-7-fluoronaphthalen-1-yl)quinazolin-2-yl)oxy)methyl)hexahydro-1H-pyrrolizin-3-yl)methyl dimethylcarbamate]",215
,"CCc1nccc2cc(O)cc(-c3ncc4c(N5C[C@H]6CC[C@@H](C5)N6)nc(OC[C@@]56CCCN5C[C@H](F)C6)nc4c3F)c12 [Example 340, 8-(4-((1R,5S)-3,8-diazabicyclo[3.2.1]octan-3-yl)-8-fluoro-2-(((2R,7aS)-2-fluorotetrahydro-1H-pyrrolizin-7a(5H)-yl)methoxy)pyrido[4,3-d]pyrimidin-7-yl)-1-ethylisoquinolin-6-ol]",20
,"CCc1c(F)ccc2cc(O)cc(-c3ncc4c(N5C[C@H]6CC[C@@H](C5)N6)c(C#N)c(OC[C@@]56CCCN5C[C@H](F)C6)nc4c3F)c12 [Example 192, 4-((1R,5S)-3,8-diazabicyclo[3.2.1]octan-3-yl)-7-(8-ethyl-7-fluoro-3-hydroxynaphthalen-1-yl)-8-fluoro-2-(((2R,7aS)-2-fluorotetrahydro-1H-pyrrolizin-7a(5H)-yl)methoxy)-1,6-naphthyridine-3-carbonitrile]",121
,"CCC1CCCc2cc(O)cc(-c3ccc4c(NCC5(N(C)C)CCC5)nc(OC[C@@]56CCCN5C[C@H](F)C6)nc4c3F)c21 (stereo partly drawn) [Example 428, 4-(4-(((1-(dimethylamino)cyclobutyl)methyl)amino)-8-fluoro-2-(((2R,7aS)-2-fluorotetrahydro-1H-pyrrolizin-7a(5H)-yl)methoxy)quinazolin-7-yl)-5-ethyl-5,6,7,8-tetrahydronaphthalen-2-ol]",70
,"C#Cc1c(F)ccc2cc(N)nc(-c3ncc4c(N5C[C@H]6CC[C@@H](C5)N6)nc(OC[C@@]56CCCN5C[C@H](F)C6)nc4c3F)c12 [Example 40, 1-(4-((1R,5S)-3,8-diazabicyclo[3.2.1]octan-3-yl)-8-fluoro-2-(((2R,7aS)-2-fluorotetrahydro-1H-pyrrolizin-7a(5H)-yl)methoxy)pyrido[4,3-d]pyrimidin-7-yl)-8-ethynyl-7-fluoroisoquinolin-3-amine]",> 2500
,"C#Cc1cccc2cc(O)cc(-c3ccc4c(N5C[C@H]6CC[C@@H](C5)N6)nc(OC[C@@]56CCCN5C[C@H](F)C6)nc4c3)c12 [Example 152, 4-(4-((1R,5S)-3,8-diazabicyclo[3.2.1]octan-3-yl)-2-(((2R, 7aS)-2-fluorotetrahydro-1H-pyrrolizin-7a(5H)-yl)methoxy)quinazolin-7-yl)-5-ethynylnaphthalen-2-ol]",318
> 2500,"Oc1cc(-c2ccc3c(N4C[C@H]5CC[C@@H](C4)[C@@H]5F)nc(OC[C@@]45CCCN4C[C@H](F)C5)nc3c2F)c2c(F)c(F)ccc2c1 [Example 126, 5,6-difluoro-4-(8-fluoro-4-((1R,5S,8R)-8-fluoro-3-azabicyclo [3.2.1]octan-3-yl)-2-(((2R,7aS)-2-fluorotetrahydro-1H-pyrrolizin-7a(5H)-yl)methoxy)quinazolin-7-yl)naphthalen-2-ol]",
,"C#Cc1c(F)ccc2cc(O)cc(-c3ncc4c(N5CCC(C#N)CC5)nc(OC[C@@]56CCCN5C[C@H](F)C6)nc4c3F)c12 [Example 68, 1-(7-(8-ethynyl-7-fluoro-3-hydroxynaphthalen-1-yl)-8-fluoro-2-(((2R, 7aS)-2-fluorotetrahydro-1H-pyrrolizin-7a(5H)-yl)methoxy)pyrido[4,3-d]pyrimidin-4-yl)piperidine-4-carbonitrile]",1290
,"CCc1c(F)ccc2cc(O)cc(-c3ccc4c(N5C[C@H]6CC[C@@H](C5)C6(F)F)nc(OC[C@@]56CCCN5C[C@H](F)C6)nc4c3F)c12 [Example 120, 4-(4-((1R,5S)-8,8-difluoro-3-azabicyclo [3.2.1]octan-3-yl)-8-fluoro-2-(((2R,7aS)-2-fluorotetrahydro-1H-pyrrolizin-7a(5H)-yl)methoxy)quinazolin-7-yl)-5-ethyl-6-fluoronaphthalen-2-ol]",> 2500
,"CCC1CCc2cc(O)cc(-c3c(Cl)cc4c(N5C[C@H]6CC[C@@H](C5)N6)nc(OC[C@@]56CCCN5C[C@H](F)C6)nc4c3F)c21 (stereo partly drawn) [Example 302, 7-(4-((1R,5S)-3,8-diazabicyclo[3.2.1]octan-3-yl)-6-chloro-8-fluoro-2-(((2R,7aS)-2-fluorotetrahydro-1H-pyrrolizin-7a(5H)-yl)methoxy)quinazolin-7-yl)-1-ethyl-2,3-dihydro-1H-inden-5-ol]",22
,"Oc1cc(-c2ccc3c(N4C[C@H]5CC[C@@H](C4)N5)nc(OC[C@@]45CCCN4C[C@H](F)C5)nc3n2)c2c(F)cccc2c1 [Example 143, 4-(4-((1R,5S)-3,8-diazabicyclo[3.2.1]octan-3-yl)-2-(((2R,7aS)-2-fluorotetrahydro-1H-pyrrolizin-7a(5H)-yl)methoxy)pyrido[2,3-d]pyrimidin-7-yl)-5-fluoronaphthalen-2-ol]",> 2500
,"CC1CCCc2cc(O)cc(-c3c4c(c5c(N6C[C@H]7CC[C@@H](C6)N7)nc(OC[C@@]67CCCN6C[C@H](F)C7)nc5c3F)CCC4)c21 (stereo partly drawn) [Example 382, 4-(1-((1R,5S)-3,8-diazabicyclo[3.2.1]octan-3-yl)-5-fluoro-3-(((2R,7aS)-2-fluorotetrahydro-1H-pyrrolizin-7a(5H)-yl)methoxy)-8,9-dihydro-7H-cyclopenta[f]quinazolin-6-yl)-5-methyl-5,6,7,8-tetrahydronaphthalen-2-ol]",45
,"C#Cc1c(F)ccc2cc(O)cc(-c3ccc4c(N5CC6CCC5CN6)nc(OC[C@@]56CCCN5C[C@H](F)C6)nc4c3F)c12 (stereo partly drawn) [Example 108, 4-(4-(2,5-diazabicyclo [2.2.2]octan-2-yl)-8-fluoro-2-(((2R,7aS)-2-fluorotetrahydro-1H-pyrrolizin-7a(5H)-yl)methoxy)quinazolin-7-yl)-5-ethynyl-6-fluoronaphthalen-2-ol]",40.5
,"Oc1ccc2c(C#Cc3ncc4c(N5C[C@H]6CC[C@@H](C5)N6)nc(OC[C@@]56CCCN5C[C@H](F)C6)nc4c3F)c(F)ccc2c1 [Example 368, 5-((4-((1R,5S)-3,8-diazabicyclo[3.2.1]octan-3-yl)-8-fluoro-2-(((2R,7aS)-2-fluorotetrahydro-1H-pyrrolizin-7a(5H)-yl)methoxy)pyrido[4,3-d]pyrimidin-7-yl)ethynyl)-6-fluoronaphthalen-2-ol]",55
,"CCC1CCc2cc(O)cc(-c3ccc4c(N5C[C@H]6CC[C@@H](C5)N6)nc(OC[C@@]56CCCN5C[C@H](F)C6)nc4c3F)c21 (stereo partly drawn) [Example 283, 7-(4-((1R,5S)-3,8-diazabicyclo[3.2.1]octan-3-yl)-8-fluoro-2-(((2R,7aS)-2-fluorotetrahydro-1H-pyrrolizin-7a(5H)-yl)methoxy)quinazolin-7-yl)-1-ethyl-2,3-dihydro-1H-inden-5-ol]",14
,"C#Cc1c(F)ccc2cc(O)cc(-c3c(Cl)cc4c(N5C[C@H]6CC[C@@H](C5)N6)nc(OC[C@@]56CCCN5C[C@H](F)C6)nc4c3OCC(F)(F)F)c12 [Example 331, 4-(4-((1R,5S)-3,8-diazabicyclo[3.2.1]octan-3-yl)-6-chloro-2-(((2R,7aS)-2-fluorotetrahydro-1H-pyrrolizin-7a(5H)-yl)methoxy)-8-(2,2,2-trifluoroethoxy)quinazolin-7-yl)-5-ethynyl-6-fluoronaphthalen-2-ol]",823
